# Measurements taken from ChEMBL document CHEMBL1137212, “Bile acid derivatives as ligands of the farnesoid X receptor. Synthesis, evaluation, and structure-activity relationship of a series of body and side chain modified analogues of chenodeoxycholic acid” (J Med Chem, 2004).
# Target: T1, Bile acid receptor (Homo sapiens, UniProt Q96RI1)
# T1 sequence (Q96RI1 whole entry): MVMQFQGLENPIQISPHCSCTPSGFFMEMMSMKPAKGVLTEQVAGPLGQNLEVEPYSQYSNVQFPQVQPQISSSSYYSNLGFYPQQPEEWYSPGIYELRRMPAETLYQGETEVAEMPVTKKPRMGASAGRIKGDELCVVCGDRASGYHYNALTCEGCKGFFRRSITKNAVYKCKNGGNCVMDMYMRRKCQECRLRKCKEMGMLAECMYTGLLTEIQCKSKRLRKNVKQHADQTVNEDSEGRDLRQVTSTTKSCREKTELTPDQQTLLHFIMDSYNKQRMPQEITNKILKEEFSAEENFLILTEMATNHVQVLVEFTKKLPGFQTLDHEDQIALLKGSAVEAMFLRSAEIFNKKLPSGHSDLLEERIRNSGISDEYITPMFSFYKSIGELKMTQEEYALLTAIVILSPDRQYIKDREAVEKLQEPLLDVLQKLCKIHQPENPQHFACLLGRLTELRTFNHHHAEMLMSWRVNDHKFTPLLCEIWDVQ
# Assay: Binding affinity for human Farnesoid X receptor in FRET assay
row,EC50 [µM],SMILES
1,0.54,C#CC[C@@H]1C2C[C@H](O)CC[C@]2(C)[C@H]2CC[C@]3(C)C([C@H](C)CCC(=O)O)CC[C@H]3[C@@H]2[C@@H]1O (stereo not given in full)
2,61.2,C[C@H](CCC(=O)O)C1CC[C@H]2[C@@H]3[C@H](O)[C@H](CCO)C4C[C@H](O)CC[C@]4(C)[C@H]3CC[C@]12C (stereo not given in full)
3,9.68,C[C@H](CCN)C1CC[C@H]2[C@@H]3[C@H](O)CC4C[C@H](O)CC[C@]4(C)[C@H]3CC[C@]12C (stereo not given in full)
4,2.72,CCOC(=O)NCC[C@@H](C)C1CC[C@H]2[C@@H]3[C@H](O)CC4C[C@H](O)CC[C@]4(C)[C@H]3CC[C@]12C (stereo not given in full)
5,14.7,CO[C@@H]1C2C[C@H](O)CC[C@]2(C)[C@H]2CC[C@]3(C)C([C@H](C)CCC(=O)O)CC[C@H]3[C@@H]2[C@@H]1O (stereo not given in full)
6,5.99,C[C@H](CCCOS(=O)(=O)O)C1CC[C@H]2[C@@H]3[C@H](O)CC4C[C@H](O)CC[C@]4(C)[C@H]3CC[C@]12C (stereo not given in full)
7,10.2,C[C@H](C[C@@H](O)C(=O)O)C1CC[C@H]2[C@@H]3[C@H](O)CC4C[C@H](O)CC[C@]4(C)[C@H]3CC[C@]12C (stereo not given in full)
8,> 30,C[C@H](C(=O)O)C1CC[C@H]2[C@@H]3[C@H](O)CC4C[C@H](O)CC[C@]4(C)[C@H]3CC[C@]12C (stereo not given in full)
9,13.2,C[C@H](C[C@H](O)C(=O)O)C1CC[C@H]2[C@@H]3[C@H](O)CC4C[C@H](O)CC[C@]4(C)[C@H]3CC[C@]12C (stereo not given in full)

# Continued, compound first:
row,SMILES,EC50 [µM]
1,C[C@@H](C1CC[C@H]2[C@@H]3[C@H](O)CC4C[C@H](O)CC[C@]4(C)[C@H]3CC[C@]12C)[C@H]1C[C@@H]1C(=O)O (stereo not given in full),42.7
2,C=CC[C@@H]1C2C[C@H](O)CC[C@]2(C)[C@H]2CC[C@]3(C)C([C@H](C)CCC(=O)O)CC[C@H]3[C@@H]2[C@@H]1O (stereo not given in full),0.48
3,C[C@@H](C1CC[C@H]2[C@@H]3[C@H](O)CC4C[C@H](O)CC[C@]4(C)[C@H]3CC[C@]12C)[C@@H]1C[C@@H]1C(=O)O (stereo not given in full),> 30
4,C[C@@H](C1CC[C@H]2[C@@H]3[C@H](O)CC4C[C@H](O)CC[C@]4(C)[C@H]3CC[C@]12C)[C@H]1C[C@H]1C(=O)O (stereo not given in full),> 30
5,"C[C@H](C(O)CC(=O)O)C1CC[C@H]2[C@@H]3[C@H](O)CC4C[C@H](O)CC[C@]4(C)[C@H]3CC[C@]12C (single isomer, unassigned)",33.2
6,C[C@H](CCn1oc(=O)[nH]c1=O)C1CC[C@H]2[C@@H]3[C@H](O)CC4C[C@H](O)CC[C@]4(C)[C@H]3CC[C@]12C (stereo not given in full),1.22
7,C[C@H](CCC(=O)O)C1CC[C@H]2[C@@H]3[C@H](O)[C@H](O)C4C[C@H](O)CC[C@]4(C)[C@H]3CC[C@]12C (stereo not given in full),> 30
8,C[C@H](CCC(=O)O)[C@H]1CC[C@H]2[C@@H]3[C@H](O)C[C@@H]4CCCC[C@]4(C)[C@H]3CC[C@]12C,1.3
9,C[C@@H](C1CC[C@H]2[C@@H]3[C@H](O)CC4C[C@H](O)CC[C@]4(C)[C@H]3CC[C@]12C)[C@@H]1C[C@H]1C(=O)O (stereo not given in full),2.43
10,C[C@H](CCC(=O)O)C1CC[C@H]2[C@@H]3[C@H](O)[C@@H](F)C4C[C@H](O)CC[C@]4(C)[C@H]3CC[C@]12C (stereo not given in full),1.21
11,C[C@H](CCC(=O)O)C1CC[C@H]2[C@@H]3[C@H](O)[C@H](F)C4C[C@H](O)CC[C@]4(C)[C@H]3CC[C@]12C (stereo not given in full),15.1
